How the values were obtained:
Chinese sprangletop = assay: Test Example 3: herbicidal effect by foliage application, Wagner pot (Table 18, symbol D); format: in vivo, chinese sprangletop (Leptochloa chinensis); details: 320 g/ha
Summary of the method: (§1)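 Plants were sown in alluvial soil held under 0.1–0.5 cm standing water and grown 14 days in a greenhouse at 25–30 °C. An emulsifiable formulation, water-diluted to the set dose, was then sprayed onto the foliage, and effects were scored three weeks later using previously defined criteria.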

green foxtail [1] = assay: Test Example 5: herbicidal effect by foliage application, plastic box (Table 20, symbol G); format: in vivo, green foxtail (Setaria viridis); details: foliage application, AAH 320 g/ha, three weeks after application
Summary of the method: (§2)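 Post-emergence foliar test in sterilized diluvial soil. Compound applied as water-diluted emulsion at a predetermined rate to 14-day-old plants; evaluation at three weeks.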

persian speedwell [2] = assay: Test Example 5: herbicidal effect by foliage application, plastic box (Table 20, symbol R); format: in vivo, Persian speedwell (Veronica persica); details: foliage application, AAH 320 g/ha, three weeks after application
Summary of the method: as §2

wild oat [3] = assay: Test Example 4: herbicidal effect by soil treatment (Table 19, symbol I); format: in vivo, wild oat (Avena fatua); details: AAH 320 g/ha
Summary of the method: (§3)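 Scoring uses the grading scale of an earlier test, three weeks post-application. Treatment consists of spraying a diluted emulsion formulation across the surface of sterilized diluvial soil in which seeds are buried near 1.5 cm deep; boxes are kept in a greenhouse between 25° C. and 30° C.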

persian speedwell [4] = assay: Test Example 4: herbicidal effect by soil treatment (Table 19, symbol R); format: in vivo, Persian speedwell (Veronica persica); details: AAH 320 g/ha
Summary of the method: as §3

chickweed [5] = assay: Test Example 5: herbicidal effect by foliage application, plastic box (Table 20, symbol P); format: in vivo, common chickweed (Stellaria media); details: foliage application, AAH 320 g/ha, three weeks after application
Summary of the method: as §2

southern crabgrass [6] = assay: Test Example 4: herbicidal effect by soil treatment (Table 19, symbol F); format: in vivo, southern crabgrass (Digitaria ciliaris); details: AAH 320 g/ha
Summary of the method: as §3

wild oat [7] = assay: Test Example 5: herbicidal effect by foliage application, plastic box (Table 20, symbol I); format: in vivo, wild oat (Avena fatua); details: foliage application, AAH 320 g/ha, three weeks after application
Summary of the method: as §2

velvetleaf [8] = assay: Test Example 5: herbicidal effect by foliage application, plastic box (Table 20, symbol M); format: in vivo, velvetleaf (Abutilon theophrasti); details: foliage application, AAH 320 g/ha, three weeks after application
Summary of the method: as §2

velvetleaf [9] = assay: Test Example 4: herbicidal effect by soil treatment (Table 19, symbol M); format: in vivo, velvetleaf (Abutilon theophrasti); details: AAH 320 g/ha
Summary of the method: as §3

southern crabgrass [10] = assay: Test Example 5: herbicidal effect by foliage application, plastic box (Table 20, symbol F); format: in vivo, southern crabgrass (Digitaria ciliaris); details: foliage application, AAH 320 g/ha, three weeks after application
Summary of the method: as §2

redroot pigweed [11] = assay: Test Example 4: herbicidal effect by soil treatment (Table 19, symbol N); format: in vivo, redroot pigweed (Amaranthus retroflexus); details: AAH 320 g/ha
Summary of the method: as §3

blackgrass [12] = assay: Test Example 5: herbicidal effect by foliage application, plastic box (Table 20, symbol J); format: in vivo, blackgrass (Alopecurus myosuroides); details: foliage application, AAH 320 g/ha, three weeks after application
Summary of the method: as §2

barnyard grass [13] = assay: Test Example 5: herbicidal effect by foliage application, plastic box (Table 20, symbol H); format: in vivo, barnyard grass (Echinochloa crus-galli); details: foliage application, AAH 320 g/ha, three weeks after application
Summary of the method: as §2

oval-leafed pondweed = assay: Test Example 1: herbicidal activity, application before weed generation under submerged conditions (Table 16, symbol C); format: in vivo, oval-leafed pondweed (Monochoria vaginalis); details: 320 g/ha applied herbicide
Summary of the method: (§4)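 Submerged Wagner pots (alluvial soil, 4 cm water) sown with weed seeds and planted with 2.5-leaf rice seedlings; emulsifiable concentrate diluted in water applied to water surface on sowing day. Held in greenhouse at 25-30 °C; injury scored 0-5 by herbicidal rate after three weeks.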

barnyard grass [14] = assay: Test Example 4: herbicidal effect by soil treatment (Table 19, symbol H); format: in vivo, barnyard grass (Echinochloa crus-galli); details: AAH 320 g/ha
Summary of the method: as §3

windgrass [15] = assay: Test Example 4: herbicidal effect by soil treatment (Table 19, symbol L); format: in vivo, windgrass (Apera spica-venti); details: AAH 320 g/ha
Summary of the method: as §3

barnyard grass [16] = assay: Test Example 3: herbicidal effect by foliage application, Wagner pot (Table 18, symbol H); format: in vivo, barnyard grass (Echinochloa crus-galli); details: 320 g/ha
Summary of the method: as §1

lambsquarters [17] = assay: Test Example 4: herbicidal effect by soil treatment (Table 19, symbol O); format: in vivo, lambsquarters (Chenopodium album); details: AAH 320 g/ha
Summary of the method: as §3

lambsquarters [18] = assay: Test Example 5: herbicidal effect by foliage application, plastic box (Table 20, symbol O); format: in vivo, lambsquarters (Chenopodium album); details: foliage application, AAH 320 g/ha, three weeks after application
Summary of the method: as §2

Italian ryegrass [19] = assay: Test Example 4: herbicidal effect by soil treatment (Table 19, symbol K); format: in vivo, Italian ryegrass (Lolium multiflorum); details: AAH 320 g/ha
Summary of the method: as §3

redroot pigweed [20] = assay: Test Example 5: herbicidal effect by foliage application, plastic box (Table 20, symbol N); format: in vivo, redroot pigweed (Amaranthus retroflexus); details: foliage application, AAH 320 g/ha, three weeks after application
Summary of the method: as §2

windgrass [21] = assay: Test Example 5: herbicidal effect by foliage application, plastic box (Table 20, symbol L); format: in vivo, windgrass (Apera spica-venti); details: foliage application, AAH 320 g/ha, three weeks after application
Summary of the method: as §2

chickweed [22] = assay: Test Example 4: herbicidal effect by soil treatment (Table 19, symbol P); format: in vivo, common chickweed (Stellaria media); details: AAH 320 g/ha
Summary of the method: as §3

green foxtail [23] = assay: Test Example 4: herbicidal effect by soil treatment (Table 19, symbol G); format: in vivo, green foxtail (Setaria viridis); details: AAH 320 g/ha
Summary of the method: as §3

Japanese bulrush = assay: Test Example 1: herbicidal activity, application before weed generation under submerged conditions (Table 16, symbol B); format: in vivo, Japanese bulrush (Schoenoplectus juncoides); details: 320 g/ha applied herbicide
Summary of the method: as §4

late watergrass = assay: Test Example 1: herbicidal activity, application before weed generation under submerged conditions (Table 16, symbol A); format: in vivo, late watergrass (Echinochloa oryzicola); details: 320 g/ha applied herbicide
Summary of the method: as §4

blackgrass [24] = assay: Test Example 4: herbicidal effect by soil treatment (Table 19, symbol J); format: in vivo, blackgrass (Alopecurus myosuroides); details: AAH 320 g/ha
Summary of the method: as §3

Italian ryegrass [25] = assay: Test Example 5: herbicidal effect by foliage application, plastic box (Table 20, symbol K); format: in vivo, Italian ryegrass (Lolium multiflorum); details: foliage application, AAH 320 g/ha, three weeks after application
Summary of the method: as §2

For Cc1nn(C)c(=O)c(-c2c(-c3ccc(OS(C)(=O)=O)cc3)sc3ccccc23)c1O [1-146], the “herbicidal effect on D (Chinese sprangletop), rating 0-5” value (Chinese sprangletop) was 2 (Herbicidal rate of 20% or more and less than 40%), the “G: green foxtail, herbicidal effect” value (green foxtail [1]) was 5 (Herbicidal rate of 90% or more (almost completely withered)) and the “R: persian speedwell, herbicidal effect” value (persian speedwell [2]) was 5 (Herbicidal rate of 90% or more (almost completely withered)). For the same compound, the “I: wild oat, herbicidal effect rating” value (wild oat [3]) was 0 (Herbicidal rate of 5% or less (almost no effect)), the “R: persian speedwell, herbicidal effect rating” value (persian speedwell [4]) was 5 (Herbicidal rate of 90% or more (almost completely withered)) and the “P: chickweed, herbicidal effect” value (chickweed [5]) was 5 (Herbicidal rate of 90% or more (almost completely withered)). The “F: southern crabgrass, herbicidal effect rating” value (southern crabgrass [6]) was 4 (Herbicidal rate of 70% or more and less than 90%), the “I: wild oat, herbicidal effect” value (wild oat [7]) was 0 (Herbicidal rate of 5% or less (almost no effect)) and the “M: velvetleaf, herbicidal effect” value (velvetleaf [8]) was 4 (Herbicidal rate of 70% or more and less than 90%). For the same compound, the “M: velvetleaf, herbicidal effect rating” value (velvetleaf [9]) was 5 (Herbicidal rate of 90% or more (almost completely withered)), the “F: southern crabgrass, herbicidal effect” value (southern crabgrass [10]) was 4 (Herbicidal rate of 70% or more and less than 90%) and the “N: redroot pigweed, herbicidal effect rating” value (redroot pigweed [11]) was 5 (Herbicidal rate of 90% or more (almost completely withered)). For the same compound, the “J: blackgrass, herbicidal effect” value (blackgrass [12]) was 1 (Herbicidal rate of 5% or more and less than 20%), the “H: barnyard grass, herbicidal effect” value (barnyard grass [13]) was 5 (Herbicidal rate of 90% or more (almost completely withered)) and the “Herbicidal effect on C: oval-leafed pondweed (grade 0-5)” value (oval-leafed pondweed) was 0 (Herbicidal rate of 5% or less (almost no effect)). For the same compound, the “H: barnyard grass, herbicidal effect rating” value (barnyard grass [14]) was 5 (Herbicidal rate of 90% or more (almost completely withered)), the “L: windgrass, herbicidal effect rating” value (windgrass [15]) was 0 (Herbicidal rate of 5% or less (almost no effect)) and the “herbicidal effect on H (barnyard grass), rating 0-5” value (barnyard grass [16]) was 5 (Herbicidal rate of 90% or more (almost completely withered)). The “O: lambsquarters, herbicidal effect rating” value (lambsquarters [17]) was 5 (Herbicidal rate of 90% or more (almost completely withered)), the “O: lambsquarters, herbicidal effect” value (lambsquarters [18]) was 3 (Herbicidal rate of 40% or more and less than 70%) and the “K: Italian ryegrass, herbicidal effect rating” value (Italian ryegrass [19]) was 4 (Herbicidal rate of 70% or more and less than 90%). For the same compound, the “N: redroot pigweed, herbicidal effect” value (redroot pigweed [20]) was 3 (Herbicidal rate of 40% or more and less than 70%), the “L: windgrass, herbicidal effect” value (windgrass [21]) was 0 (Herbicidal rate of 5% or less (almost no effect)) and the “P: chickweed, herbicidal effect rating” value (chickweed [22]) was 4 (Herbicidal rate of 70% or more and less than 90%). For the same compound, the “G: green foxtail, herbicidal effect rating” value (green foxtail [23]) was 5 (Herbicidal rate of 90% or more (almost completely withered)), the “Herbicidal effect on B: Japanese bulrush (grade 0-5)” value (Japanese bulrush) was 0 (Herbicidal rate of 5% or less (almost no effect)) and the “Herbicidal effect on A: late watergrass (grade 0-5)” value (late watergrass) was 3 (Herbicidal rate of 40% or more and less than 70%). For the same compound, the “J: blackgrass, herbicidal effect rating” value (blackgrass [24]) was 0 (Herbicidal rate of 5% or less (almost no effect)) and the “K: Italian ryegrass, herbicidal effect” value (Italian ryegrass [25]) was 5 (Herbicidal rate of 90% or more (almost completely withered)).

Source: US20230085307A1, “PYRIDAZINONE COMPOUND AND HERBICIDE” (NISSAN CHEMICAL CORPORATION, priority 2019, published 2023)
